Test results taken from US20090048288A1, “METHOD OF TREATING STRESS-MEDIATED DEPRESSION” (H. Lundbeck A/S, priority 2007, published 2009).
Entries after “also recorded” stand apart in the source; their conditions may differ.

System: Chronic mild stress model in rats
Assay: Chronic mild stress model in rats, serum marker analysis
Conditions: for Apo A1 (Apolipoprotein A1), median value: serum 24 hrs after last drug injection; for reversal of chronic mild stress induced changes in serum inflammatory markers / cytokine levels: rats exposed to chronic mild stress, compared with non-stressed controls
Source text: The biochemical changes induced in the animals studied in the stress models lead to increases in inflammatory mediators/markers.
At the end of the present study, terminal serum samples were collected for marker analysis to evaluate the effects of stress with and without drug on the levels of about 60 blood markers.
Serum samples were withdrawn from the tail, without stunning, during the daytime (09:00-17:00) 24 hrs after the last drug injection. Blood was collected into BD vacutainers containing clot activator and gel for serum preparation, inverted 5 times and maintained on ice until centrifugation at 3000 rpm for 10 min at 4° C. Serum was decanted, placed on ice, and at the end of the day stored at −80° C.

Structure (SMILES): CN(C)CCC[C@@]1(c2ccc(F)cc2)OCc2cc(C#N)ccc21 [ESC, escitalopram, reference compound]
- CRP (C Reactive Protein), median value (1st study, 5 mg/kg, serum): 1060.00 µg/mL
- Eotaxin, median value (1st study, 5 mg/kg, serum): 1300.00 pg/mL
- FGF-9 (Fibroblast Growth Factor-9), median value (1st study, 5 mg/kg, serum): 0.90 ng/mL
- GCP-2 (Granulocyte Chemotactic Protein-2), median value (1st study, 5 mg/kg, serum): 0.21 ng/mL
- Growth Hormone, median value (1st study, 5 mg/kg, serum): 1.38 ng/mL
- IL-1alpha (Interleukin-1alpha), median value (1st study, 5 mg/kg, serum): 15.40 pg/mL
- IL-2 (Interleukin-2), median value (1st study, 5 mg/kg, serum): 38.80 pg/mL
- IL-4 (Interleukin-4), median value (1st study, 5 mg/kg, serum): 51.70 pg/mL
- IL-7 (Interleukin-7), median value (1st study, 5 mg/kg, serum): 0.22 ng/mL
- IL-10 (Interleukin-10), median value (1st study, 5 mg/kg, serum): 317.00 pg/mL
- IL-11 (Interleukin-11), median value (1st study, 5 mg/kg, serum): 166.00 pg/mL
- IP-10 (Inducible Protein-10), median value (1st study, 5 mg/kg, serum): 194.00 pg/mL
- IgA (Immunoglobulin A), median value (1st study, 5 mg/kg, serum): 6.54 µg/mL
- Insulin, median value (1st study, 5 mg/kg, serum): 11.30 uIU/mL
- LIF (Leukemia Inhibitory Factor), median value (1st study, 5 mg/kg, serum): 67.20 pg/mL
- Leptin, median value (1st study, 5 mg/kg, serum): 2.62 ng/mL
- Lymphotactin, median value (1st study, 5 mg/kg, serum): 68.00 pg/mL
- M-CSF (Macrophage-Colony Stimulating Factor), median value (1st study, 5 mg/kg, serum): 941.00 ng/mL
- MCP-1 (Monocyte Chemoattractant Protein-1), median value (1st study, 5 mg/kg, serum): 1500.00 pg/mL
- MCP-3 (Monocyte Chemoattractant Protein-3), median value (1st study, 5 mg/kg, serum): 885.00 pg/mL
- MCP-5 (Monocyte Chemoattractant Protein-5), median value (1st study, 5 mg/kg, serum): 0.87 pg/mL
- MIP-1alpha (Macrophage Inflammatory Protein-1alpha), median value (1st study, 5 mg/kg, serum): 244.00 ng/mL
- MIP-1gamma (Macrophage Inflammatory Protein-1gamma), median value (1st study, 5 mg/kg, serum): 11.50 ng/mL
- MIP-2 (Macrophage Inflammatory Protein-2), median value (1st study, 5 mg/kg, serum): 0.09 pg/mL
- MPO (Myeloperoxidase), median value (1st study, 5 mg/kg, serum): 54.60 ng/mL
- NGAL (Lipocalin-2), median value (1st study, 5 mg/kg, serum): 0.22 ng/mL
- Osteopontin, median value (1st study, 5 mg/kg, serum): 310.00 ng/mL
- SAP (Serum Amyloid P), median value (1st study, 5 mg/kg, serum): 178.00 µg/mL
- SCF (Stem Cell Factor), median value (1st study, 5 mg/kg, serum): 16.95 pg/mL
- SGOT (Serum Glutamic-Oxaloacetic Transaminase), median value (1st study, 5 mg/kg, serum): 0.31 µg/mL
- TIMP-1 (Tissue Inhibitor of Metalloproteinase Type-1), median value (1st study, 5 mg/kg, serum): 0.22 ng/mL
- TPO (Thrombopoietin), median value (1st study, 5 mg/kg, serum): 142.00 ng/mL
- Tissue Factor, median value (1st study, 5 mg/kg, serum): 0.15 ng/mL
- VCAM-1 (Vascular Cell Adhesion Molecule-1), median value (1st study, 5 mg/kg, serum): 409.00 ng/mL
- VEGF (Vascular Endothelial Cell Growth Factor), median value (1st study, 5 mg/kg, serum): 106.00 pg/mL
- Apo A1 (Apolipoprotein A1), median value (1st study, 5 mg/kg): 8.40 µg/mL
- reversal of chronic mild stress induced changes in serum inflammatory markers / cytokine levels: inactive at most of these changes

Structure (SMILES): Oc1noc2c1CCNC2 [GBX, 4,5,6,7-tetrahydroisoxazolo[5,4-c]pyridine-3-ol]
- CRP (C Reactive Protein), median value (1st study, 5 mg/kg, serum): 1140.00 µg/mL
- Cystatin-C, median value (1st study, 5 mg/kg, serum): 1165.00 ng/mL
- FGF-9 (Fibroblast Growth Factor-9), median value (1st study, 5 mg/kg, serum): 0.59 ng/mL
- GCP-2 (Granulocyte Chemotactic Protein-2), median value (1st study, 5 mg/kg, serum): 0.19 ng/mL
- Growth Hormone, median value (1st study, 5 mg/kg, serum): 7.67 ng/mL
- IL-1alpha (Interleukin-1alpha), median value (1st study, 5 mg/kg, serum): 11.30 pg/mL
- IL-2 (Interleukin-2), median value (1st study, 5 mg/kg, serum): 31.30 pg/mL
- IL-4 (Interleukin-4), median value (1st study, 5 mg/kg, serum): 29.60 pg/mL
- IL-7 (Interleukin-7), median value (1st study, 5 mg/kg, serum): 0.16 ng/mL
- IL-10 (Interleukin-10), median value (1st study, 5 mg/kg, serum): 249.00 pg/mL
- IL-11 (Interleukin-11), median value (1st study, 5 mg/kg, serum): 128.00 pg/mL
- IL-18 (Interleukin-18), median value (1st study, 5 mg/kg, serum): 0.07 ng/mL
- IP-10 (Inducible Protein-10), median value (1st study, 5 mg/kg, serum): 138.00 pg/mL
- IgA (Immunoglobulin A), median value (1st study, 5 mg/kg, serum): 5.91 µg/mL
- Insulin, median value (1st study, 5 mg/kg, serum): 8.88 uIU/mL
- LIF (Leukemia Inhibitory Factor), median value (1st study, 5 mg/kg, serum): 53.90 pg/mL
- Leptin, median value (1st study, 5 mg/kg, serum): 2.59 ng/mL
- Lymphotactin, median value (1st study, 5 mg/kg, serum): 53.80 pg/mL
- M-CSF (Macrophage-Colony Stimulating Factor), median value (1st study, 5 mg/kg, serum): 865.00 ng/mL
- MCP-1 (Monocyte Chemoattractant Protein-1), median value (1st study, 5 mg/kg, serum): 1185.00 pg/mL
- MCP-3 (Monocyte Chemoattractant Protein-3), median value (1st study, 5 mg/kg, serum): 655.00 pg/mL
- MCP-5 (Monocyte Chemoattractant Protein-5), median value (1st study, 5 mg/kg, serum): 0.77 pg/mL
- MIP-1alpha (Macrophage Inflammatory Protein-1alpha), median value (1st study, 5 mg/kg, serum): 173.00 ng/mL
- MIP-1gamma (Macrophage Inflammatory Protein-1gamma), median value (1st study, 5 mg/kg, serum): 7.95 ng/mL
- MIP-2 (Macrophage Inflammatory Protein-2), median value (1st study, 5 mg/kg, serum): 0.08 pg/mL
- MPO (Myeloperoxidase), median value (1st study, 5 mg/kg, serum): 20.80 ng/mL
- NGAL (Lipocalin-2), median value (1st study, 5 mg/kg, serum): 0.17 ng/mL
- Osteopontin, median value (1st study, 5 mg/kg, serum): 396.00 ng/mL
- SAP (Serum Amyloid P), median value (1st study, 5 mg/kg, serum): 133.00 µg/mL
- SCF (Stem Cell Factor), median value (1st study, 5 mg/kg, serum): 14.85 pg/mL
- SGOT (Serum Glutamic-Oxaloacetic Transaminase), median value (1st study, 5 mg/kg, serum): 0.21 µg/mL
- TIMP-1 (Tissue Inhibitor of Metalloproteinase Type-1), median value (1st study, 5 mg/kg, serum): 0.16 ng/mL
- TPO (Thrombopoietin), median value (1st study, 5 mg/kg, serum): 147.00 ng/mL
- Tissue Factor, median value (1st study, 5 mg/kg, serum): 0.10 ng/mL
- VCAM-1 (Vascular Cell Adhesion Molecule-1), median value (1st study, 5 mg/kg, serum): 361.00 ng/mL
- VEGF (Vascular Endothelial Cell Growth Factor), median value (1st study, 5 mg/kg, serum): 81.00 pg/mL
- Apo A1 (Apolipoprotein A1), median value (1st study, 5 mg/kg): 8.20 µg/mL
- Beta-2 Microglobulin, median value (2nd study, 10 mg/kg, serum): 38.00 µg/mL
- CRP (C Reactive Protein), median value (2nd study, 10 mg/kg, serum): 1030.00 µg/mL
- Clusterin, median value (2nd study, 10 mg/kg, serum): 108.00 µg/mL
- Cystatin-C, median value (2nd study, 10 mg/kg, serum): 696.00 ng/mL
- Eotaxin, median value (2nd study, 10 mg/kg, serum): 1072.00 pg/mL
- FGF-9 (Fibroblast Growth Factor-9), median value (2nd study, 10 mg/kg, serum): 1.70 ng/mL
- Factor VII, median value (2nd study, 10 mg/kg, serum): 0.30 ng/mL
- GCP-2 (Granulocyte Chemotactic Protein-2), median value (2nd study, 10 mg/kg, serum): 0.29 ng/mL
- GST-Mu, median value (2nd study, 10 mg/kg, serum): 1190.00 ng/mL
- Growth Hormone, median value (2nd study, 10 mg/kg, serum): 3.10 ng/mL
- IL-1beta (Interleukin-1beta), median value (2nd study, 10 mg/kg, serum): 0.56 ng/mL
- IL-2 (Interleukin-2), median value (2nd study, 10 mg/kg, serum): 22.00 pg/mL
- IL-5 (Interleukin-5), median value (2nd study, 10 mg/kg, serum): 0.24 ng/mL
- IL-7 (Interleukin-7), median value (2nd study, 10 mg/kg, serum): 0.06 ng/mL
- IL-10 (Interleukin-10), median value (2nd study, 10 mg/kg, serum): 362.00 pg/mL
- IL-18 (Interleukin-18), median value (2nd study, 10 mg/kg, serum): 0.43 ng/mL
- IP-10 (Inducible Protein-10), median value (2nd study, 10 mg/kg, serum): 41.00 pg/mL
- IgA (Immunoglobulin A), median value (2nd study, 10 mg/kg, serum): 4.30 µg/mL
- Insulin, median value (2nd study, 10 mg/kg, serum): 14.50 uIU/mL
- LIF (Leukemia Inhibitory Factor), median value (2nd study, 10 mg/kg, serum): 67.00 pg/mL
- Leptin, median value (2nd study, 10 mg/kg, serum): 1.35 ng/mL
- Lymphotactin, median value (2nd study, 10 mg/kg, serum): 63.00 pg/mL
- M-CSF (Macrophage-Colony Stimulating Factor), median value (2nd study, 10 mg/kg, serum): 1400.00 ng/mL
- MCP-1 (Monocyte Chemoattractant Protein-1), median value (2nd study, 10 mg/kg, serum): 1020.00 pg/mL
- MCP-3 (Monocyte Chemoattractant Protein-3), median value (2nd study, 10 mg/kg, serum): 659.00 pg/mL
- MCP-5 (Monocyte Chemoattractant Protein-5), median value (2nd study, 10 mg/kg, serum): 0.72 pg/mL
- MDC (Macrophage-Derived Chemokine), median value (2nd study, 10 mg/kg, serum): 0.12 pg/mL
- MIP-1alpha (Macrophage Inflammatory Protein-1alpha), median value (2nd study, 10 mg/kg, serum): 127.00 ng/mL
- MIP-1beta (Macrophage Inflammatory Protein-1beta), median value (2nd study, 10 mg/kg, serum): 0.01 pg/mL
- MIP-1gamma (Macrophage Inflammatory Protein-1gamma), median value (2nd study, 10 mg/kg, serum): 19.00 ng/mL
- MIP-2 (Macrophage Inflammatory Protein-2), median value (2nd study, 10 mg/kg, serum): 0.22 pg/mL
- MIP-3beta (Macrophage Inflammatory Protein-3beta), median value (2nd study, 10 mg/kg, serum): 29.70 ng/mL
- MPO (Myeloperoxidase), median value (2nd study, 10 mg/kg, serum): 533.00 ng/mL
- Myoglobin, median value (2nd study, 10 mg/kg, serum): 520.00 ng/mL
- NGAL (Lipocalin-2), median value (2nd study, 10 mg/kg, serum): 0.15 ng/mL
- OSM (Oncostatin M), median value (2nd study, 10 mg/kg, serum): 19.10 ng/mL
- Osteopontin, median value (2nd study, 10 mg/kg, serum): 255.00 ng/mL
- RANTES (Regulation Upon Activation, Normal T-Cell Expressed and Secreted), median value (2nd study, 10 mg/kg, serum): 10.60 pg/mL
- SAP (Serum Amyloid P), median value (2nd study, 10 mg/kg, serum): 403.00 µg/mL
- SCF (Stem Cell Factor), median value (2nd study, 10 mg/kg, serum): 11.30 pg/mL
- SGOT (Serum Glutamic-Oxaloacetic Transaminase), median value (2nd study, 10 mg/kg, serum): 8.53 µg/mL
- TIMP-1 (Tissue Inhibitor of Metalloproteinase Type-1), median value (2nd study, 10 mg/kg, serum): 0.24 ng/mL
- TNF-alpha (Tumor Necrosis Factor-alpha), median value (2nd study, 10 mg/kg, serum): 4.45 ng/mL
- TPO (Thrombopoietin), median value (2nd study, 10 mg/kg, serum): 119.00 ng/mL
- Tissue Factor, median value (2nd study, 10 mg/kg, serum): 0.06 ng/mL
- VCAM-1 (Vascular Cell Adhesion Molecule-1), median value (2nd study, 10 mg/kg, serum): 353.00 ng/mL
- VEGF (Vascular Endothelial Cell Growth Factor), median value (2nd study, 10 mg/kg, serum): 78.00 pg/mL
- Apo A1 (Apolipoprotein A1), median value (2nd study, 10 mg/kg): 6.20 µg/mL
- reversal of chronic mild stress induced changes in serum inflammatory markers / cytokine levels (listed as gaboxadol): dose dependently was able to reverse most of the chronic mild stress induced changes in cytokine levels; also recorded: significantly reversed the stress-induced alterations in serum markers toward levels found in non-stressed controls; also recorded: dose dependently is able to reverse or partially reverse changes at most in inflammatory parameters induced by chronic mild stress
